# Source: patent US6737383B1, “Herbicidal oxadiazolidines” (priority 1999, dated 2004)
# Key:
# bedstraw = test: Test B pre/postemergence bedstraw; format: in vivo, Galium aparine
# Method in brief: (§1)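 Response is a visual 0-to-10 score relative to untreated plants, where 0 means no effect and 10 means complete control, taken twelve to sixteen days after application. Treatments went onto soil at planting and onto foliage of 1- to 4-leaf plants, using a surfactant-containing non-phytotoxic solvent.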
# blackgrass = test: Test B pre/postemergence blackgrass; format: in vivo, Alopecurus myosuroides
# Method in brief: as §1
# surinam grass = test: Test B pre/postemergence surinam grass; format: in vivo, Brachiaria decumbens
# Method in brief: as §1
# cocklebur = test: Test B pre/postemergence cocklebur; format: in vivo, Xanthium strumarium
# Method in brief: as §1
# giant foxtail = test: Test B pre/postemergence giant foxtail; format: in vivo, Setaria faberii
# Method in brief: as §1
# morningglory = test: Test B pre/postemergence morningglory; format: in vivo, Ipomoea hederacea
# Method in brief: as §1
# pigweed = test: Test B pre/postemergence pigweed; format: in vivo, Amaranthus retroflexus
# Method in brief: as §1
# rape = test: Test B pre/postemergence rape; format: in vivo, Brassica napus
# Method in brief: as §1
# soybean = test: Test B pre/postemergence soybean; format: in vivo, Glycine max
# Method in brief: as §1
# velvetleaf = test: Test B pre/postemergence velvetleaf; format: in vivo, Abutilon theophrasti
# Method in brief: as §1
# wheat = test: Test B pre/postemergence wheat; format: in vivo, Triticum aestivum
# Method in brief: as §1
# wild oat = test: Test B pre/postemergence wild oat; format: in vivo, Avena fatua
# Method in brief: as §1
# purple nutsedge = test: Test B pre/postemergence purple nutsedge; format: in vivo, Cyperus rotundus
# Method in brief: as §1
# smallflower flatsedge = test: Test B flood test smallflower flatsedge; format: in vivo, Cyperus difformis
# Method in brief: (§2)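 Each value is a visual injury score relative to controls, with 10 meaning complete control and 0 no effect. Evaluation took place twelve to sixteen days after the 2-leaf-stage plants were treated and kept in the greenhouse.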
# duck salad = test: Test B flood test duck salad; format: in vivo, Heteranthera limosa
# Method in brief: as §2
# bamyardgrass = test: Test B flood test barnyardgrass; format: in vivo, Echinochloa crus-galli
# Method in brief: as §2
# [1] = Postemergence, Rate 62 g/ha, scale 0 to 10, 0 is no effect, 10 is complete control
# [2] = Postemergence, Rate 250 g/ha, scale 0 to 10, 0 no effect, 10 complete control
# [3] = Preemergence, Rate 62 g/ha, scale 0 to 10, 0 is no effect, 10 is complete control
# [4] = Preemergence, Rate 125 g/ha, scale 0 to 10 (0 no effect, 10 complete control)
# [5] = Preemergence, Rate 250 g/ha, scale of 0 to 10 where 0 is no effect and 10 is complete control
# [6] = Preemergence, Rate 500 g/ha, scale 0 (no effect) to 10 (complete control)
# [7] = Rate 125 g/ha, Postemergence, scale 0 to 10, 0 no effect, 10 complete control
# [8] = Rate 500 g/ha, Postemergence, 0 to 10 scale (0 no effect, 10 complete control)
# [9] = Rate 125 g/ha, Postemergence section (flood test species), scale 0 to 10, 0 no effect, 10 complete control
# [10] = flood test, listed under Postemergence, Rate 250 g/ha, scale 0 to 10, 0 no effect, 10 complete control
# [11] = Rate 500 g/ha, Postemergence section of Table B, 0 to 10 scale (0 no effect, 10 complete control)
smiles,measurement,setting,value
CC(C)N(C(=O)n1oc(=O)n(-c2cc(Cl)ccc2Cl)c1=O)c1ccc(F)cc1 [Compound 16],Bedstraw plant response rating,bedstraw; [1],0
same,Bedstraw plant response rating,bedstraw; [2],0
same,"Plant response rating, Bedstraw",bedstraw; [3],0
same,"Plant response rating, Bedstraw",bedstraw; [4],0
same,"Plant response rating, Bedstraw",bedstraw; [5],0
same,Bedstraw plant response rating,bedstraw; [6],0
same,Bedstraw plant response rating,bedstraw; [7],0
same,Bedstraw plant response rating,bedstraw; [8],0
same,Blackgrass plant response rating,blackgrass; [1],0
same,Blackgrass plant response rating,blackgrass; [2],0
same,"Plant response rating, Blackgrass",blackgrass; [3],0
same,"Plant response rating, Blackgrass",blackgrass; [4],0
same,"Plant response rating, Blackgrass",blackgrass; [5],0
same,Blackgrass plant response rating,blackgrass; [6],0
same,Blackgrass plant response rating,blackgrass; [7],0
same,Blackgrass plant response rating,blackgrass; [8],2
same,B. signalgrass plant response rating,surinam grass; [1],0
same,B. signalgrass plant response rating,surinam grass; [2],0
same,"Plant response rating, B. signalgrass",surinam grass; [3],0
same,"Plant response rating, B. signalgrass",surinam grass; [4],0
same,"Plant response rating, B. signalgrass",surinam grass; [5],0
same,B. signalgrass plant response rating,surinam grass; [6],0
same,B. signalgrass plant response rating,surinam grass; [7],0
same,B. signalgrass plant response rating,surinam grass; [8],0
same,Cocklebur plant response rating,cocklebur; [1],0
same,Cocklebur plant response rating,cocklebur; [2],0
same,"Plant response rating, Cocklebur",cocklebur; [3],0
same,"Plant response rating, Cocklebur",cocklebur; [4],0
same,"Plant response rating, Cocklebur",cocklebur; [5],0
same,Cocklebur plant response rating,cocklebur; [6],0
same,Cocklebur plant response rating,cocklebur; [7],0
same,Cocklebur plant response rating,cocklebur; [8],0
same,Giant foxtail plant response rating,giant foxtail; [1],0
same,Giant foxtail plant response rating,giant foxtail; [2],0
same,"Plant response rating, Giant foxtail",giant foxtail; [3],0
same,"Plant response rating, Giant foxtail",giant foxtail; [4],2
same,"Plant response rating, Giant foxtail",giant foxtail; [5],3
same,Giant foxtail plant response rating,giant foxtail; [6],8
same,Giant foxtail plant response rating,giant foxtail; [7],0
same,Giant foxtail plant response rating,giant foxtail; [8],3
same,Morningglory plant response rating,morningglory; [1],1
same,Morningglory plant response rating,morningglory; [2],1
same,"Plant response rating, Morningglory",morningglory; [3],0
same,"Plant response rating, Morningglory",morningglory; [4],0
same,"Plant response rating, Morningglory",morningglory; [5],0
same,Morningglory plant response rating,morningglory; [6],0
same,Morningglory plant response rating,morningglory; [7],1
same,Morningglory plant response rating,morningglory; [8],3
same,Redroot pigweed plant response rating,pigweed; [1],0
same,Redroot pigweed plant response rating,pigweed; [2],0
same,"Plant response rating, Redroot pigweed",pigweed; [3],0
same,"Plant response rating, Redroot pigweed",pigweed; [4],0
same,"Plant response rating, Redroot pigweed",pigweed; [5],0
same,Redroot pigweed plant response rating,pigweed; [6],0
same,Redroot pigweed plant response rating,pigweed; [7],0
same,Redroot pigweed plant response rating,pigweed; [8],0
same,Rape plant response rating,rape; [1],0
same,Rape plant response rating,rape; [2],0
same,"Plant response rating, Rape",rape; [3],0
same,"Plant response rating, Rape",rape; [4],0
same,"Plant response rating, Rape",rape; [5],0
same,Rape plant response rating,rape; [6],0
same,Rape plant response rating,rape; [7],0
same,Rape plant response rating,rape; [8],0
same,Soybean plant response rating,soybean; [1],1
same,Soybean plant response rating,soybean; [2],1
same,"Plant response rating, Soybean",soybean; [3],0
same,"Plant response rating, Soybean",soybean; [4],0
same,"Plant response rating, Soybean",soybean; [5],0
same,Soybean plant response rating,soybean; [6],0
same,Soybean plant response rating,soybean; [7],1
same,Velvetleaf plant response rating,velvetleaf; [1],0
same,Velvetleaf plant response rating,velvetleaf; [2],0
same,"Plant response rating, Velvetleaf",velvetleaf; [3],0
same,"Plant response rating, Velvetleaf",velvetleaf; [4],0
same,"Plant response rating, Velvetleaf",velvetleaf; [5],0
same,Velvetleaf plant response rating,velvetleaf; [6],0
same,Velvetleaf plant response rating,velvetleaf; [7],0
same,Wheat plant response rating,wheat; [1],0
same,Wheat plant response rating,wheat; [2],0
same,"Plant response rating, Wheat",wheat; [3],0
same,"Plant response rating, Wheat",wheat; [4],0
same,"Plant response rating, Wheat",wheat; [5],0
same,Wheat plant response rating,wheat; [6],0
same,Wheat plant response rating,wheat; [7],0
same,Wild oats plant response rating,wild oat; [1],0
same,Wild oats plant response rating,wild oat; [2],0
same,"Plant response rating, Wild oats",wild oat; [4],0
same,"Plant response rating, Wild oats",wild oat; [5],0
same,Wild oats plant response rating,wild oat; [6],0
same,Wild oats plant response rating,wild oat; [7],0
same,Nutsedge plant response rating,purple nutsedge; [1],0
same,Nutsedge plant response rating,purple nutsedge; [2],0
same,"Plant response rating, Nutsedge",purple nutsedge; [3],0
same,"Plant response rating, Nutsedge",purple nutsedge; [4],0
same,"Plant response rating, Nutsedge",purple nutsedge; [5],0
same,Nutsedge plant response rating,purple nutsedge; [6],0
same,Nutsedge plant response rating,purple nutsedge; [7],0
same,Nutsedge plant response rating,purple nutsedge; [8],0
same,S. Flatsedge plant response rating,smallflower flatsedge; [1],0
same,S. Flatsedge plant response rating,smallflower flatsedge; [9],0
same,S. Flatsedge plant response rating,smallflower flatsedge; [10],0
same,Ducksalad plant response rating,duck salad; [1],0
same,Ducksalad plant response rating,duck salad; [9],0
same,Ducksalad plant response rating,duck salad; [11],0
same,Ducksalad plant response rating,duck salad; [10],0
same,Barnyardgrass plant response rating,bamyardgrass; [1],0
same,Barnyardgrass plant response rating,bamyardgrass; [9],0
same,Barnyardgrass plant response rating,bamyardgrass; [11],0
same,Barnyardgrass plant response rating,bamyardgrass; [10],0
